Where two headings read alike, the source gives them in different places.
Legend:
[1] = system: non-cancerous human embryonic kidney HEK293T cells; assay: Cytotoxicity, PrestoBlue assay, HEK293T; type: cell-based; details: 72 h, read-out: IC50 (µM) after 72 h, HEK293T
Method: (§1) counterpart, A2780cis, were procured from the European Collection of Cell
(§2) (ThermoFisher, USA) base medium supplemented with 10% Foetal Bovine
(§3) Serum (FBS; Sigma, Germany) and 1% of Penicillin-Streptomycin
(§4) (ThermoFisher, USA). Additionally, A2780cis cell line was cultured in the
(§5) drug. The human embryonic kidney cell line, HEK293T, and HeLa cell line were
(§6) obtained from American Type Culture Collection (ATCC, USA) and were cultured
(§7) in DMEM GlutaMAX (ThermoFisher, USA) base medium, supplemented with
(§8) 10% FBS and 1% of Penicillin-Streptomycin. All cell lines were maintained in a
(§9) humidified incubator at37 °C and 5% CO2.
(§10) 4.2. Cytotoxicity studies
(§11) cells/mL (A2780cis and HEK293T) was dispensed into flat bottom 96-well plates
(§12) and allowed to attach overnight. On the next day, 10 mM stock solutions of the
(§13) tested compounds were prepared in DMSO, then diluted with media to the final
(§14) concentration range of 0 - 100 µM and applied to the cells; 0.1% DMSO final
(§15) solution and 10 µM final concentration gambogic acid were used as negative and
(§16) positive controls, respectively. After 72 h incubation in a humidified incubator
(§17) under 5% CO2 at 37 °C, PrestoBlue™ cell viability reagent (Cat. No. A13262,
(§18) Invitrogen, USA) was added to cultures at a 1:10 ratio according to the
(§19) manufacturer instructions, and samples were incubated for 1.5 h. Fluorescence
(§20) at 560/590 nm was detected with Tecan Infinite 500 microplate reader (Tecan,
(§21) Switzerland). Three wells were assessed for each concentration of the tested
(§22) compounds and three independent experiments were performed. Non-linear
(§23) regression and IC50 value calculation were performed in GraphPad Prism 9 using
(§24) the build-in function “Dose response- Inhibition”.

[2] = system: A2780cis cells with acquired resistance to cisplatin; assay: Cytotoxicity, PrestoBlue assay, A2780cis; type: cell-based, human; details: for IC50: 72 h, read-out: IC50 (µM) after 72 h, A2780cis; for Resistance index (RI): RI = IC50 A2780cis/IC50 A2780
Method: as §1, §2, §3, §4, §5, §6, §7, §8, §9, §10, §11, §12, §13, §14, §15, §16, §17, §18, §19, §20, §21, §22, §23, §24

[3] = system: A2780 ovarian cancer cell line; assay: Cytotoxicity, PrestoBlue assay, A2780; type: cell-based, human; details: read-out: IC50 (µM) after 72 h, A2780
Method: as §1, §2, §3, §4, §5, §6, §7, §8, §9, §10, §11, §12, §13, §14, §15, §16, §17, §18, §19, §20, §21, §22, §23, §24

[4] = system: DNA synthesis in HeLa cells; assay: EdU incorporation assay, fluorescence cell microscopy; type: cell-based; details: for Degree of inhibition of DNA synthesis: 3 µM, 24 h, gemcitabine = 100%, DMSO = 0%
Description: The inhibitory effect of Pt1^Y and Pt2^Y (Y = NR, O, S) on DNA synthesis during cell proliferation was quantified in cellulo using an EdU incorporation assay and fluorescence cell microscopy (Fig. 6 and SI Fig. 12).[70] Gemcitabine, a clinically-approved DNA synthesis inhibitor,[71] was used as a positive control (100% inhibition), and the cells treated with an equivalent amount of DMSO served as a negative control (“untreated”, 0% inhibition). Cisplatin and transplatin were included as references. DNA synthesis was blocked to various degrees in the cells treated with the different platinum complexes. […]
4.4. EdU incorporation assay
EdU incorporation assay was performed using a Click-iT EdU Imaging kit
(C10086, Thermo Fisher, Switzerland) according to the manufacturer’s protocol.
HeLa cells were seeded into a black 96-well PhenoPlate with optically clear flat-bottom (Revity 6055302) at a concentration of 4000 cells per well. After 24 h, the cells were treated with the tested compounds Pt1Y and Pt2Y (Y = NR, O, S), […]
of the compounds in HeLA cells). Gemcitabine (1 and 3 µM) and an equal volume of DMSO were used as positive and negative control, respectively. Each condition was tested in triplicate. The assay was performed after an incubation of 24 h. The cells were additionally stained by Hoechst 33342 diluted in PBS with 3% BSA. The fluorescent signal was detected with the widefield INCell 2200 microscope (GE health care, USA) using a 10X/0.45 objective. The DAPI channel was used for Hoechst 33342 emitting blue (λex = 390/ 18 nm, λem = 432.5/ 48 nm), and the FITC channel for Edu-AlexaFluor-488 (λex = 475/ 28 nm, λem = 511.5/23 nm) emitting in green. For each well, 9 fields of view were captured. Image analysis was performed using CellProfiler (v4.2.5), CellProfiler Analyst (v3.0.4) and FIJI (v1.54k) software. Images were first pre -processed (correction for flat - field illumination using a Gaussian-based smoothing filter and rescaled for segmentation). All cells were segmented using the minimum cross -entropy thresholding method on an intermediate image composed of the addition of 2 channels imaged. For all cells, featur es of size, shape, and fluorescence intensities were extracted. Cells were then either classified directly as live or dead based on a combination of their size and EdU staining intensity or classified automatically as live or dead using a machine learning -based random forest classifier model in a multiparametric approach. The readout used is the average percentage of live or dead cells in each condition and the values are normalised to gemcitabine at 3 μM and DMSO (untreated) with the corresponding volume at […]

[5] = n-octanol/water partition coefficient; type: physicochemical
Description: Resistance index (RI) ^a, and n-octanol/water partition coefficients (logPOW) | column: logPOW

[6] = system: ovarian cancer cell lines (A2780 and A2780cis); assay: Cytotoxicity stated jointly for both ovarian cancer cell lines
Method: as §1, §2, §3, §4, §5, §6, §7, §8, §9, §10, §11, §12, §13, §14, §15, §16, §17, §18, §19, §20, §21, §22, §23, §24

[7] = Homo sapiens, HEK-293T, PrestoBlue
[8] = Homo sapiens, A2780cis, PrestoBlue
[9] = Homo sapiens, A2780, 72 h, PrestoBlue

CC(=O)OC[C@H]1O[C@@H]([S-])[C@H](OC(C)=O)[C@@H](OC(C)=O)[C@@H]1OC(C)=O.CCP(CC)CC.[Au+] [Auranofin, auranofin, reference compound]
IC50 ([1]; PrestoBlue): 0.4 ± 0.1 µM
IC50 ([2]; PrestoBlue): 1.9 ± 0.4 µM
Resistance index (RI) [2]: 20.6
IC50 ([3]; 72 h, PrestoBlue): 0.1 ± 0.1 µM

Nc1ccn([C@@H]2O[C@H](CO)[C@@H](O)C2(F)F)c(=O)n1 [gemcitabine, reference compound]
inhibition at 1 µM ([4]; Homo sapiens, gemcitabine 1 µM, set as 100%, read-out: Degree of inhibition of DNA synthesis (positive control)): 100%

CC[n+]1[c]([Au-][I])oc2ccccc21 [Au3^O]
IC50 ([1]; PrestoBlue, listed as Au3^S): 1.9 ± 0.3 µM
IC50 ([1]; PrestoBlue, listed as Au3^Se): 0.1 ± 0.1 µM
IC50 ([1]; PrestoBlue): 1 ± 0.1 µM
IC50 ([2]; PrestoBlue, listed as Au3^S): 6.4 ± 0.4 µM
IC50 ([2]; PrestoBlue, listed as Au3^Se): 0.2 ± 0.1 µM
IC50 ([2]; PrestoBlue): 5 ± 2 µM
Resistance index (RI) [2]: 31.5
Resistance index (RI) ([2]; listed as Au3^S): 29.2
Resistance index (RI) ([2]; listed as Au3^Se): 3.4
IC50 ([3]; 72 h, PrestoBlue, listed as Au3^S): 0.2 ± 0.1 µM
IC50 ([3]; 72 h, PrestoBlue, listed as Au3^Se): 0.1 ± 0.1 µM
IC50 ([3]; 72 h, PrestoBlue): 0.2 ± 0.2 µM
logPOW ([5]; n-octanol/water): 1.2 ± 0.4
logPOW ([5]; n-octanol/water, listed as Au3^S): 1.5 ± 0.1
logPOW ([5]; n-octanol/water, listed as Au3^Se): 1.4 ± 0.3

C[n+]1cco[c]1[Pt-2]([I])([I])[n+]1ccccc1 [Pt1^O]
IC50 ([1]; PrestoBlue, listed as Pt1^S): 47 ± 23 µM
IC50 ([1]; PrestoBlue): 18 ± 6 µM
IC50 ([2]; PrestoBlue, listed as Pt1^S): 30 ± 29 µM
IC50 ([2]; PrestoBlue): 16 ± 4 µM
Resistance index (RI) [2]: 2.0
Resistance index (RI) ([2]; listed as Pt1^S): 2.4
IC50 ([3]; 72 h, PrestoBlue, listed as Pt1^S): 13 ± 8 µM
IC50 ([3]; 72 h, PrestoBlue): 8 ± 2 µM
Degree of inhibition of DNA synthesis [4]: 38%
Degree of inhibition of DNA synthesis ([4]; listed as Pt1^S): 6%

c1ccc(C[n+]2ccsc2)cc1 [2S·HBr]
IC50 [1, 7]: > 100 µM
IC50 [2, 8]: 73.5 µM
IC50 [3, 9]: 58.6 µM

c1ccc(C[n+]2c[se]c3ccccc32)cc1 [4Se·HBr]
IC50 ([1]; Homo sapiens, HEK-293T): 20.5 ± 14.2 µM
IC50 ([2]; Homo sapiens, A2780cis): 28.4 ± 8 µM
IC50 ([3]; Homo sapiens, A2780, 72 h): 13.5 ± 5.9 µM

CCn1[c]([Au-][I])[n+](CC)c2ccccc21 [Au3^NEt]
IC50 ([1]; PrestoBlue): 2.1 ± 0.6 µM
IC50 ([2]; PrestoBlue): 2.7 ± 0.1 µM
Resistance index (RI) [2]: 4.9
IC50 ([3]; 72 h, PrestoBlue): 0.6 ± 0.2 µM
logPOW ([5]; n-octanol/water): 1.6 ± 1.1

C[n+]1ccoc1 [1O·HI]
IC50 [1, 7]: 59.1 ± 16.6 µM
IC50 [2, 8]: 39.8 ± 2.6 µM
IC50 [3, 9]: 11.8 µM

Cn1cc[n+](C)[c]1[Pt-2]([I])([I])[n+]1ccccc1 [Pt1^NMe]
IC50 [6]: ~3 µM
IC50 ([1]; PrestoBlue): 4 ± 1 µM
IC50 ([2]; PrestoBlue): 2.8 ± 0.7 µM
Resistance index (RI) [2]: 1.0
IC50 ([3]; 72 h, PrestoBlue): 2.9 ± 0.2 µM
logPOW [5]: 1.3 ± 0.6
Degree of inhibition of DNA synthesis [4]: 29%

c1ccc(Cn2c[n+](Cc3ccccc3)c3ccccc32)cc1 [4NBn·HBr]
IC50 [1, 7]: 35.2 ± 26.3 µM
IC50 [2, 8]: 24.4 ± 11.7 µM
IC50 [3, 9]: 15.2 ± 12.1 µM

Cn1cc[n+](C)c1 [1NMe·HI]
IC50 [1, 7]: > 100 µM
IC50 [2, 8]: > 100 µM
IC50 [3, 9]: > 100 µM

CC[n+]1csc2ccccc21 [3S·HI]
IC50 [1, 7]: > 100 µM
IC50 [2, 8]: > 100 µM
IC50 [3, 9]: > 100 µM

N.N.[Cl][Pt+2][Cl] [transplatin, reference compound]
Degree of inhibition of DNA synthesis [4]: 23%

c1ccc(C[n+]2csc3ccccc32)cc1 [4S·HBr]
IC50 [1, 7]: 36.8 ± 19.3 µM
IC50 [2, 8]: 37.9 ± 1.7 µM
IC50 [3, 9]: 34.7 µM

C[n+]1ccsc1 [1S·HI]
IC50 [1, 7]: > 100 µM
IC50 [2, 8]: > 100 µM
IC50 [3, 9]: > 100 µM

N.N.[Cl][Pt][Cl] [Cisplatin, cisplatin, reference compound]
IC50 ([1]; PrestoBlue): 1.5 ± 0.2 µM
IC50 ([2]; PrestoBlue, listed as cisplatin): 8.4 ± 4.6 µM
IC50 ([2]; PrestoBlue): 8 ± 5 µM
IC50 ([3]; 72 h, PrestoBlue): 0.4 ± 0.1 µM
Degree of inhibition of DNA synthesis [4]: 62%

[I][Pt-2]([I])([c]1n(Cc2ccccc2)cc[n+]1Cc1ccccc1)[n+]1ccccc1 [Pt2^NBn]
IC50 [6]: ~1 µM
IC50 ([1]; PrestoBlue): 1.4 ± 0.1 µM
IC50 ([2]; PrestoBlue): 1.2 ± 0.1 µM
Resistance index (RI) [2]: 1.9
IC50 ([3]; 72 h, PrestoBlue): 0.6 ± 0.2 µM
logPOW [5]: 2.1 ± 0.8
Degree of inhibition of DNA synthesis [4]: 100%

[I][Pt-2]([I])([c]1occ[n+]1Cc1ccccc1)[n+]1ccccc1 [Pt2^O]
IC50 ([6]; read-out: Cytotoxicity (IC50) in the ovarian cancer cell lines, A2780 and A2780cis together, approximate text values, 72 h): ~5 µM
IC50 ([6]; read-out: Cytotoxicity (IC50) in the ovarian cancer cell lines, A2780 and A2780cis together, approximate text values, 72 h, listed as Pt2^S): ~8 µM
IC50 ([1]; PrestoBlue, listed as Pt2^S): 9 ± 2 µM
IC50 ([1]; PrestoBlue): 6 ± 2 µM
IC50 ([2]; PrestoBlue, listed as Pt2^S): 12 ± 3 µM
IC50 ([2]; PrestoBlue): 5 ± 2 µM
Resistance index (RI) [2]: 1.5
Resistance index (RI) ([2]; listed as Pt2^S): 2.2
IC50 ([3]; 72 h, PrestoBlue, listed as Pt2^S): 6 ± 1 µM
IC50 ([3]; 72 h, PrestoBlue): 4 ± 1 µM
logPOW ([5]; n-octanol/water): 1.6 ± 0.2
logPOW ([5]; n-octanol/water, listed as Pt2^S): 1.8 ± 1.0
Degree of inhibition of DNA synthesis [4]: 37%
Degree of inhibition of DNA synthesis ([4]; listed as Pt2^S): 24%

CC[n+]1coc2ccccc21 [3O·HI]
IC50 [1, 7]: > 100 µM
IC50 [2, 8]: > 100 µM
IC50 [3, 9]: > 100 µM

c1ccc(Cn2cc[n+](Cc3ccccc3)c2)cc1 [2NBn·HBr]
IC50 [1, 7]: 51.1 ± 12.4 µM
IC50 [2, 8]: 44.1 µM
IC50 [3, 9]: 37.4 µM

CCn1c[n+](CC)c2ccccc21 [3NEt·HI]
IC50 [1, 7]: > 100 µM
IC50 [2, 8]: > 100 µM
IC50 [3, 9]: > 100 µM

c1ccc(C[n+]2ccoc2)cc1 [2O·HBr]
IC50 [1, 7]: > 100 µM
IC50 [2, 8]: > 100 µM
IC50 [3, 9]: > 100 µM

Source: PMC12794336, “Unconventional chalcogen-containing azolylidene metal complexes as potential anticancer therapeutics” (Chemical Science, 2025)
